Results reported in patent US8980241B2, “Polymerized cyclic nitroxide radical compound and use thereof” (University of Tsukuba, priority 2008, dated 2015).

Legend:
[1] = Test 3: reduction-resistance against ascorbic acid (ESR); type: physicochemical; details: 3.6 mM AsA, PBS buffer pH 7.4
Source text: AsA, also referred to as vitamin C, is present in general at high concentrations in blood.

[2] = Test 2: reduction-resistance against glutathione (ESR); type: physicochemical; details: 10 mM glutathione, pH7.2, one hour after colocalization with GSH
Method: It is known that, in general, while the interior of a cell is a reductive environment with high concentrations (0.5 mM to 10 mM) of glutathione present, on the order of only one over 100 to 1000 of that in the cell is present in blood.

[3] = test system: Cerebral ischemia model rat; experiment: Test 5 (1): treatment of cerebral ischemia model rat; details: in vivo
[4] = Test 4: in-blood retention after vein injection (ESR of blood plasma); details: in vivo, mouse, injected in the vein
Method: Each of N-TEMPO-RNP and O-TEMPO-RNP prepared as described above was independently injected in the vein of a different mouse, and after a given time period, laparotomy was performed to carry out blood collection from the heart. After blood collection, centrifugal separation was performed at 6,200 rpm (2000×g) for 10 minutes to obtain blood plasma. When the ESR spectrum of the obtained blood plasma was measured, an ESR signal of each RNP was observed from within the blood. In addition, when the disposition thereof was examined, the half-life was approximately 20 minutes for the former (FIG. 9) and approximately one hour for the latter (FIG. 10).

[5] = test system: cerebral ischemia model rats

Compound: 2,2,6,6-tetramethylpiperidino oxy radical [TEMPO]
- half-life (ESR signal) [1]: ≤ 20 s
- decrease in the intensity of the ESR signal [2]: 50%

Compound: CC1(C)CC(O)CC(C)(C)N1[O] [Tempol, 4-hydroxy-2,2,6,6-tetramethylpiperidine-1-oxyl]
- cell death-protection effect in TTC-stained brain [3]: more cell death-protection effect at a given level or greater was obtained than with intravenous administration
- cell death in TTC-stained brain ([3]; iv): more effect than N-TEMPO-RNP was not observed
- half-life [4]: < 60 s
- average blood pressure at the time of agent administration ([5]; cerebral ischemia model rats, N=20): decreased significantly
- neurological symptom score ([5]; score 0-3, N=20): no significant differences
